Results on seven compounds are retold here after US8969375B2, “CDK9 kinase inhibitors” (AbbVie Inc., priority 2013, dated 2015).

In one data set the target is T1, CDK9/Cyclin T1 (Homo sapiens, UniProt P50750).
T1 construct: purchased Carna Biosciences 04-110
As to the kind of experiment: CDK9 enzyme activity, LANCE ULight TR-FRET kinase assay. Conditions: 1000 μM ATP, 4 nM CDK9/Cyclin T1, 30 minutes. It counts as biochemical. Summed up: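 Human CDK9/Cyclin T1 (4 nM) phosphorylated 100 nM ULight-MBP peptide at 1000 μM ATP for 30 min in HEPES/MgCl2/Triton buffer. The reaction was stopped with 20 mM EDTA plus 0.5 nM Eu anti-phospho-MBP antibody and equilibrated 1 h. Read-out was TR-FRET (ex 320, em 615/665 nm).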

The subject of a further data set is A431 cells. As to the kind of experiment: Cell viability assay (Cell TiterGlo), A431 cells. It counts as cell-based. Conditions: Homo sapiens, A-431, 24 hours. As to the method: Cell viability assays were performed using A431 or H929 cells. A431 cells were seeded in 96-well plates at 10,000 cells/well, and after overnight incubation, treated with compounds at 2-times the final concentration to result in a dose response of 3-fold dilutions from 10 μM to 0.0005 μM (50 μL/well, 0.1% final DMSO concentration). H929 cells were seeded in 96-well plates at 10,000 cells/well and treated immediately with compounds as described above. After 24 hours at 37° C., cell viability was measured using Cell TiterGlo reagent (Promega) with a luminescence reader. Alternately, cell viability assays were performed in 384-well format. A431 cells were seeded in 384-well plates at 2500 cells/well and, after overnight incubation, treated with compounds in a dose response of 3-fold dilutions from 10 μM to 0.0005 μM ([…], 0.1% final DMSO concentration). For the H929 viability assay, […] of the compounds was dispensed into 384-well plates in a dose response as described above and cells were immediately seeded in 384-well plates at 2500 cells/well. After 24 hours at […], cell viability was measured using Cell TiterGlo reagent (Promega) with a luminescence reader.

For another data set, the system named is H929 cells. In words: Cell viability assay (Cell TiterGlo), H929 cells. It counts as cell-based, human. The conditions noted are these: Homo sapiens, NCI-H929, 24 hours. Summed up: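 A431 cells seeded overnight, H929 cells dosed at seeding; 3-fold dilutions 10 μM to 0.0005 μM, 0.1% final DMSO, 96- or 384-well format. Viability read by CellTiter-Glo luminescence after 24 h at 37 °C.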

A further data set relates to H929 xenograft tumors. As to the kind of experiment: Xenograft tumor growth inhibition assay, H929 human multiple myeloma xenograft. It is filed as in vivo, mice. The conditions noted are these: IP, TW x 3; for % TGD (tumor growth delay): (T − C)/C × 100, median time to endpoint; for % TGI: female nude or SCID-beige mice, end of treatment period; for % removed from study: removed due to morbidity or weight loss in excess of 20%. As to the method:
Xenograft Tumor Growth Inhibition Assay
The effect of Examples 1, 4, and 5 to inhibit the growth of H929 xenograft tumors implanted in mice was evaluated. NCI-H929 cells obtained from culture were suspended in cell culture medium (MEM, no calcium, no glutamine, Life Technologies Corporation) and diluted 1:1 with a solution of Matrigel™ (BD Biosciences, Franklin Lakes, N.J.). Tumor cells 5 million per site were inoculated subcutaneously into the right hind flank of female nude or SCID-beige mice (Charles River Labs).
Randomization into treatment and vehicle control groups (9-10/group) occurred when the mean tumor volume reached approximately 200 mm^3 Compounds were formulated in 2% DMSO, 5% Tween80, 20% PEG400, 73% HPMC. Administration of compound or vehicle was initiated on the day following randomization and continued for the indicated time. Tumors were measured twice a week throughout the treatment period using a pair of calipers and tumor volumes were calculated according to the formula V=L×W^2/2 (V: volume, mm^3; L: length, mm. W: width, […]). Tumor growth inhibition was calculated based on the mean tumor volume measured at the end of the treatment period according to the formula % TGI=100−mean tumor volume of treatment group/mean tumor volume of control group×100.

Marks after values point to notes of the source that are not given here.

T1 sequence (P50750 whole entry): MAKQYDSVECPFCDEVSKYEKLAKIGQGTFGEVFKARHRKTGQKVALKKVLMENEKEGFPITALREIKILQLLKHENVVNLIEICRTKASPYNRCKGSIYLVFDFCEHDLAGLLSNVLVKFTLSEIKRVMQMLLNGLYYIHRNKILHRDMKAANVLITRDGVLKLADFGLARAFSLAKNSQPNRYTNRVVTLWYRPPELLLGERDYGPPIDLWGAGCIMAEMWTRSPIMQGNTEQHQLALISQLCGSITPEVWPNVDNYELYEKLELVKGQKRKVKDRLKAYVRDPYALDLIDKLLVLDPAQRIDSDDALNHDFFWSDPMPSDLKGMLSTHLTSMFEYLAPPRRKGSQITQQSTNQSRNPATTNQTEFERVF
T1 sequence (O60563 whole entry partner): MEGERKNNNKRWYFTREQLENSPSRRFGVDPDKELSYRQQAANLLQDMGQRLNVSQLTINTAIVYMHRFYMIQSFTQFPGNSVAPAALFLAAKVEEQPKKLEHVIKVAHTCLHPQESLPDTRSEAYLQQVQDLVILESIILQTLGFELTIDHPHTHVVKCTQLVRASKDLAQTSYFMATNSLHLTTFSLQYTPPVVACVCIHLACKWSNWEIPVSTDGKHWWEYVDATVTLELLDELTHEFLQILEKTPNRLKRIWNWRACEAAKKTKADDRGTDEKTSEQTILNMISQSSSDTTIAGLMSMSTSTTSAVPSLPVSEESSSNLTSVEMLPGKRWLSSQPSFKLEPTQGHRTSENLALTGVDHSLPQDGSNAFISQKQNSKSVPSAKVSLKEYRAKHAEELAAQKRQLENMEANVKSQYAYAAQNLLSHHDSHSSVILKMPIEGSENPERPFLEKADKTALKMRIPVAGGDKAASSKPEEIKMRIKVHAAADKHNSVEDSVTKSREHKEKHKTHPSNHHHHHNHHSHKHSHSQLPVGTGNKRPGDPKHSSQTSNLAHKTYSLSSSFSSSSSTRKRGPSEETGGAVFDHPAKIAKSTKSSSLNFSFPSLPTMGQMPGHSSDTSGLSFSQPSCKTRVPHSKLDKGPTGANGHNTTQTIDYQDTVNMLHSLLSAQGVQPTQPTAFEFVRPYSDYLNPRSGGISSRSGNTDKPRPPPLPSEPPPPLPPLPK

In the case of `Fc1cccc(CN2CCc3ccc(-c4ccnc5[nH]c(C6CCNCC6)cc45)cc32)c1` [Example 1, 4-[1-(3-fluorobenzyl)-2,3-dihydro-1H-indol-6-yl]-2-(piperidin-4-yl)-1H-pyrrolo[2,3-b]pyridine], half-maximal inhibition against CDK9/Cyclin T1 (IC50) required 64 nM. This compound came in with an EC50 in the data set with A431 cells of 550 nM. A half-maximal response with H929 cells (EC50) required 490 nM. Also, in the data set on H929 xenograft tumors (3.75 mg/kg), the “% TGD (tumor growth delay)” value stood at 55%, the “% TGI” value is on record as 64** % and the “% removed from study” value was found to be 0%. In the data set with H929 xenograft tumors (7.50 mg/kg), the “% TGD (tumor growth delay)” value is reported as 66*** %, the “% TGI” value is recorded as 66*** % and the “% removed from study” value was determined as 11%.
The compound `CS(=O)(=O)N1CCC(c2cc3c(-c4ccc5ncn(Cc6cccc(F)c6)c5c4)ccnc3[nH]2)CC1` [Example 4, 1-(3-fluorobenzyl)-6-{2-[1-(methylsulfonyl)piperidin-4-yl]-1H-pyrrolo[2,3-b]pyridin-4-yl}-1H-benzimidazole] returned an IC50 on CDK9/Cyclin T1 of 24 nM. In the data set on A431 cells, this compound gave an EC50 of 9 nM. This compound showed an EC50 in the data set with H929 cells of 15 nM. Further, in the data set with H929 xenograft tumors (3.75 mg/kg), the “% TGD (tumor growth delay)” value is on record as 5%, the “% TGI” value came out at 25% and the “% removed from study” value is recorded as 0%. In the data set with H929 xenograft tumors (7.50 mg/kg), the “% TGD (tumor growth delay)” value is given as 42*** %, the “% TGI” value was 62** % and the “% removed from study” value was 11%.
On to `CNC(=O)N1CC=C(c2cc3c(-c4ccc5ncn(Cc6cccc(F)c6)c5c4)ccnc3[nH]2)CC1` [Example 24, 4-{4-[1-(3-fluorobenzyl)-1H-benzimidazol-6-yl}-1H-pyrrolo[2,3-b]pyridin-2-yl]-N-methyl-3,6-dihydropyridine-1(2H)-carboxamide], for which the midpoint of inhibition against CDK9/Cyclin T1, the IC50, lay at 35 nM. In addition, the EC50 worked out at 13 nM in the data set with A431 cells and 27 nM in the data set on H929 cells.
For `OCC(O)CN1CC=C(c2cc3c(-c4ccc5ncn(Cc6cccc(F)c6)c5c4)ccnc3[nH]2)CC1` (stereo not drawn) [Example 25, 3-[4-{4-[1-(3-fluorobenzyl)-1H-benzimidazol-6-yl]-1H-pyrrolo[2,3-b]pyridin-2-yl}-3,6-dihydropyridin-1(2H)-yl]propane-1,2-diol], in that order: 19 nM, 43 nM and 49 nM.
On CDK9/Cyclin T1, `CC(=O)Nc1ccc(CN2CC=C(c3cc4c(-c5ccc6ncn(Cc7cccc(F)c7)c6c5)ccnc4[nH]3)CC2)cc1` [Example 26, N-(4-{[4-{4-[1-(3-fluorobenzyl)-1H-benzimidazol-6-yl]-1H-pyrrolo[2,3-b]pyridin-2-yl}-3,6-dihydropyridin-1(2H)-yl]methyl}phenyl)acetamide] had an IC50 of 43 nM. Also, the results for the EC50 with A431 cells and in the data set with H929 cells were 6 nM and 26 nM, respectively.
On CDK9/Cyclin T1, `Fc1cccc(Cn2ccc3ncc(-c4ccnc5[nH]c(C6CCNCC6)cc45)cc32)c1` [Example 29, 1-(3-fluorobenzyl)-6-[2-(piperidin-4-yl)-1H-pyrrolo[2,3-b]pyridin-4-yl]-1H-pyrrolo[3,2-b]pyridine] showed an IC50 of 28 nM. For the same compound, the EC50 with A431 cells stood at 33 nM; with H929 cells, 87 nM.
For `Fc1cncc(Cn2ccc3ccc(-c4ccnc5[nH]c(C6=CCNCC6)cc45)nc32)c1` [Example 51, 1′-[(5-fluoropyridin-3-yl)methyl]-2-(1,2,3,6-tetrahydropyridin-4-yl)-1H,1′H-4,6′-bipyrrolo[2,3-b]pyridine], in that order: 14 nM, 11 nM and 90 nM.
